Patent US20250197799A1, “CELLS DERIVED FROM POLYPEDILUM VANDERPLANKI AND ODOR SENSOR EQUIPPED THEREWITH” (University of Maryland, College Park, priority 2022, published 2025)

Tests used:
Orco = target: T1, Orco (Drosophila melanogaster, UniProt Q9VNB5); assay: Response of BAM-immobilized Orco stable expression cell line; format: cell-based; conditions: Pv11-GCaMP6f-Orco stable expression cell line immobilized with BAM
T1 construct: remnant residues; expressed in transfected cells; host or cells: Pv11 cells (Polypedilum vanderplanki), knock-in at the Pv.00443 locus downstream of the 121 promoter, single-cell sorting
T1 sequence (Q9VNB5 1-486): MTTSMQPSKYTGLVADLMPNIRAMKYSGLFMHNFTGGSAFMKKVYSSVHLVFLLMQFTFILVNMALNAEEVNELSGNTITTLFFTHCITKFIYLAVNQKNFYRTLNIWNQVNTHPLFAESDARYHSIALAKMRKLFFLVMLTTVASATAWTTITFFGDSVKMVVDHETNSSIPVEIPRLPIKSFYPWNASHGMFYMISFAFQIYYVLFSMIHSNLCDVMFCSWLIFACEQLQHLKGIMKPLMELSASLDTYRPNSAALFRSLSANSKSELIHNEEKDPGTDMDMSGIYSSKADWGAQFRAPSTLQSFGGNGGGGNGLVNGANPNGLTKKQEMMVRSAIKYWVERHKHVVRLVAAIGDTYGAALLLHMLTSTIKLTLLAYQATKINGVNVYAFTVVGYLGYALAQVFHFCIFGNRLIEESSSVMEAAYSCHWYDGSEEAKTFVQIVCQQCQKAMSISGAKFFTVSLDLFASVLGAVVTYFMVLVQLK
Text: 8.1 Pv11 cell immobilization. A cell membrane modifier (BAM: Biocompatible Anchor for cell Membrane) was used to fix the stable expression cell line obtained above. BAM consists of a hydrophilic PEG chain, an NHS group, and a hydrophobic oleyl group; by bringing BAM into contact with a collagen-coated dish, the NHS group binds to collagen, and the oleyl group interacts with the cell membrane through hydrophobic interactions, allowing cells to adhere. BAM (SUNBRIGHT OE-040CS, Yuka Sangyo Co., Ltd.) was dissolved in DMSO (Fujifilm Wako Pure Chemical Industries) to a concentration of 10 mM. The 10 mM BAM solution was adjusted to DPBS(-) (Thermo Fisher) to a final concentration of 100 μM, 100 μl was dropped onto a collagen 1-coated 48-well microplate (IWAKI) and incubated at 37° C. for 1 hour. The BAM solution was removed, washed once with DPBS(-) (Thermo Fisher) and five times with MilliQ, and allowed to stand still to evaporate water droplets. The Pv11 cell suspension was centrifuged at 700 g for 3 minutes, the supernatant was removed, the cell pellet was suspended in DPBS(-) (Thermo Fisher) and dropped onto a BAM-coated dish. […]
8.2 Functional confirmation of exogenous membrane proteins in fixed cells. […] Each substance was reacted with each cell in the same manner as in 3.2 above, and the fluorescence intensity was measured. […]

Orco-Or47a = target: T2, Orco-Or47a (Drosophila melanogaster, UniProt P81921+Q9VNB5); assay: Response after rehydration with cycloheximide treatment, Orco-Or47a stable expression cell line; format: cell-based; design: remnant residues; expressed in transfected cells; host or cells: Pv11 cells (Polypedilum vanderplanki), CRIS-PITCh knock-in at the Pv.00443 locus downstream of the 121 promoter, Zeocin selection and single-cell sorting
T2 sequence (Q9VNB5 1-486): T1 sequence (Q9VNB5 1-486)
T2 sequence (P81921 1-385): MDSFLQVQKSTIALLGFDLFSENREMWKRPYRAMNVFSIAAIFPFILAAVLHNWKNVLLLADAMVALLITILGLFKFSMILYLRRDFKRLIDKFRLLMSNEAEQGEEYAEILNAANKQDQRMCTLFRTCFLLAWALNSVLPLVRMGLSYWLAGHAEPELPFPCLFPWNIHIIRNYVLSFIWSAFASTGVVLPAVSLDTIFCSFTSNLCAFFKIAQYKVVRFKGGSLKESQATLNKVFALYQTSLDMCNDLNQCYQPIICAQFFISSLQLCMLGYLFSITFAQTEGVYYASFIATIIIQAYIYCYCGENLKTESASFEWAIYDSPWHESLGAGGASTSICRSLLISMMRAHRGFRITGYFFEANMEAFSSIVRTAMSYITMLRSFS
Description: 7. Confirmation that exogenous membrane protein responses in Orco-Or47a stable expression cell lines immediately after rehydration are not due to de novo protein synthesis. To confirm that the membrane protein response of the Orco-Or47a stable expression cell line immediately after rehydration was not due to de novo protein synthesis, cells were treated with cycloheximide (CHX, a protein synthesis inhibitor).
A previous study reported that 0.35 mM of cycloheximide is able to inhibit protein production in Pv11 cells. Therefore, also in this experiment, cycloheximide was dissolved in IPL-41 medium so that the cycloheximide concentration was 0.35 mM. An IPL-41 medium with 0.01 mM, 0.07 mM and 0.7 mM cycloheximide was also prepared. The rehydration of dried cells was performed using 1 ml of I PL-41 medium containing cycloheximide. One hour after rehydration and 24 hours after rehydration, the same operation as in 3.6 above was performed, and the fluorescence intensity was measured and analyzed. The ΔF/F0 was as described above. FIG. 7A and FIG. 7B are graphs showing changes in fluorescence intensity of the Orco-Or47a stable expression cell line response to VUAA1 and pentyl acetate, respectively, one hour after drying and rehydration. FIGS. 7C and 7D are graphs showing changes in fluorescence intensity, respectively, in response to VUAA1 and pentyl acetate of Orco-Or47a stable expression cell lines 24 hours after drying and rehydration.

[1] = 1 hour after drying-rehydration
[2] = 24 hours after rehydration, without CHX

SMILES	response (fluorescence intensity) of immobilized cells (Orco)	response as change in fluorescence intensity (ΔF/F0) (Orco-Or47a; [1])	response as change in fluorescence intensity (ΔF/F0) (Orco-Or47a; [2])
CCc1ccc(NC(=O)CSc2nnc(-c3cccnc3)n2CC)cc1 [VUAA1, N-(4-ethylphenyl)-2-{[4-ethyl-5-(pyridin-3-yl)-4H-1,2,4-triazol-3-yl]sulfanyl}acetamide]	did respond	specific responses	strongly enhanced
CCCCCOC(C)=O [pentyl acetate]	did not respond	specific responses	strongly enhanced
